Data: patent US20250075190A1, “DE NOVO DESIGNED LUCIFERASE” (UNIVERSITY OF WASHINGTON, priority 2022, published 2025)

Tests used:
Assay type in all cases: biochemical
[1] = tested on: LuxSit-f (de novo designed luciferase; LuxSit variant A96M/M110V, 60R/96M/98H/110V; SEQ ID NO:3); experiment: Michaelis-Menten kinetics of LuxSit-f with DTZ; details: substrate DTZ; for Km / Vmax: Tris pH 8.0
Excerpt: (§1) Synthetic genes and oligonucleotides were purchased from Integrated DNA Technologies or GenScript. The synthetic gene was inserted between NdeI and XhoI sites of a pET29b+ vector, containing an N-terminal hexahistidine tag followed by a TEV protease cleavage site and a C-terminal stop codon. Restriction endonucleases, Q5 PCR polymerase, and T4 ligase were purchased from NEB. Plasmid DNA, PCR products, or digested fragments were purified by Qiagen DNA purification kits. DNA sequences were analyzed by Genewiz. Coelenterazine (CTZ) was purchased from Gold Biotechnology. Diphenylterazine (DTZ), pyridyl diphenylterazine (8pyDTZ), and Furimazine (FRZ) were purchased from MedChemExpress. All other coelenterazine analogs (bis-CTZ: bisdeoxycoelenterazine; f-CTZ: f-Coelenterazine; e-CTZ: e-Coelenterazine-F; PP-CTZ: methoxy e-Coelenterazine; v-CTZ: v-Coelenterazine. All other chemicals were purchased from Sigma-Aldrich or Fisher Scientific and used without further purification. To identify the molecular mass of each protein, intact mass spectra were obtained via reverse-phase LC/MS on an Agilent 6230B TOF on an AdvanceBio RP-Desalting column and subsequently deconvoluted by Bioconfirm software using a […] algorithm. AKTA pure M with UNICORN 6.3.2 Workstation control (GE Healthcare) coupled with a Superdex™ 75 Increase 10/300 GL column was used for size exclusion chromatography. DNA and protein concentrations were determined by a NanoDrop™ small-volume 8 channel UV/vis spectrometer. CD spectra and CD melting experiments were performed by the default setting on a J-1500 Circular Dichroism Spectropolarimeter (Jasco). All luminescence measurements were acquired by a Biotek Synergy Neo2T™ Multi-Mode Plate Reader. To convert relative arbitrary unit (RLU) to the number of photons, Neo2 plate reader was calibrated by determining the chemiluminescence of luminol with known quantum yield in the presence of horseradish peroxidase and hydrogen peroxide in K2CO3 aqueous solution as previously described^45. SDS PAGE and luminescence images were captured by a Bio-Rad ChemiDocT™ XRS+. Images were analyzed using the Fiji image analysis software.
(§2) Lemo21(DE3) strain was used for transformation with the pET29b+ plasmid encoding the gene of interest. Transformed cells were grown for 12 h in TB medium supplemented with kanamycin. Cells were inoculated at 1:50 ratio in 100 mL fresh TB medium, grown at 37° C. for 4 h, and then induced by IPTG for an additional 18 h at 16° C. Cells were harvested by centrifugation at 4,000 g for 10 min and resuspended in 30 mL lysis buffer (20 mM Tris-HCl pH 8.0, 300 mM NaCl, 30 mM imidazole, and Pierce™ Protease Inhibitor Tablets). Cell resuspensions were lysed by sonication for 5 min (10 s per cycle). Lysates were clarified by centrifugation at 24,000 g at 12° C. for 40 min and pre-equilibrated with 1 mL of Ni-NTA nickel agarose at 4° C. for 1 h. The resin was washed twice with 10 mL wash buffer and then eluted in 1 mL elution buffer (20 mM Tris-HCl pH 8.0, 300 mM NaCl, 300 mM imidazole). The eluted proteins were purified by size exclusion chromatography in PBS. Fractions were collected based on A280 trace, snap-frozen in liquid nitrogen, and stored at −80° C.,
(§3) To create libraries of each single amino acid substitution at residues 13, 14, 17, 18, 35, 37, 38, 49, 52, 53, 56, 60, 65, 81, 83, 94, 96, 98, 100, 110, and 112, forward oligos mixture with degenerate codons (NDT, VHG, and TGG=1:1:0.1 ratio) and an overlapped reverse oligo were used to amplify the plasmid of LuxSit. The resulting PCR products were circularized by Gibson Assembly protocol and were subsequently used to transform ElectroMAX™ DH10B Cells. The cells were plated on 150 mm×15 mm LB agar plates supplemented with carbenicillin and L-arabinose, incubated at 37° C. overnight, and left at 4° C. for another 24 h. As described in the screening of luciferase libraries, colony-based screening by spraying DTZ solution was used to identify active colonies. […]. […]

[2] = tested on: LuxSit (de novo designed luciferase, parent, 60R/96A/98H/110M; SEQ ID NO:1); experiment: Michaelis-Menten kinetics of LuxSit (parent) with DTZ; details: substrate DTZ; mean (95% CI), n = 3; Tris pH 8.0
Excerpt: (§4) Synthetic genes and oligonucleotides were purchased from Integrated DNA Technologies or GenScript. The synthetic gene was inserted between NdeI and XhoI sites of a pET29b+ vector, containing an N-terminal hexahistidine tag followed by a TEV protease cleavage site and a C-terminal stop codon. Restriction endonucleases, Q5 PCR polymerase, and T4 ligase were purchased from NEB. Plasmid DNA, PCR products, or digested fragments were purified by Qiagen DNA purification kits. DNA sequences were analyzed by Genewiz. Coelenterazine (CTZ) was purchased from Gold Biotechnology. Diphenylterazine (DTZ), pyridyl diphenylterazine (8pyDTZ), and Furimazine (FRZ) were purchased from MedChemExpress. […] DNA and protein concentrations were determined by a NanoDrop™ small-volume 8 channel UV/vis spectrometer. […] All luminescence measurements were acquired by a Biotek Synergy Neo2T™ Multi-Mode Plate Reader. To convert relative arbitrary unit (RLU) to the number of photons, Neo2 plate reader was calibrated by determining the chemiluminescence of luminol with known quantum yield in the presence of horseradish peroxidase and hydrogen peroxide in K2CO3 aqueous solution as previously described^45. SDS PAGE and luminescence images were captured by a Bio-Rad ChemiDocT™ XRS+. Images were analyzed using the Fiji image analysis software. […]

[3] = tested on: LuxSit (de novo designed luciferase, SEQ ID NO:1) variant M110C; experiment: Michaelis-Menten kinetics of LuxSit M110C with DTZ; details: substrate DTZ; mean (95% CI), n = 3; Tris pH 8.0
Excerpt: as §4

[4] = tested on: LuxSit (de novo designed luciferase, SEQ ID NO:1) variant H98N; experiment: Michaelis-Menten kinetics of LuxSit H98N with DTZ; details: substrate DTZ; mean (95% CI), n = 3; Tris pH 8.0
Excerpt: as §4

[5] = tested on: LuxSit (de novo designed luciferase, SEQ ID NO:1) variant R60C; experiment: Michaelis-Menten kinetics of LuxSit R60C with DTZ; details: substrate DTZ; mean (95% CI), n = 3; Tris pH 8.0
Excerpt: as §4

[6] = tested on: LuxSit (de novo designed luciferase, SEQ ID NO:1) variant Y14E; experiment: Michaelis-Menten kinetics of LuxSit Y14E with DTZ; details: substrate DTZ; mean (95% CI), n = 3; Tris pH 8.0
Excerpt: as §4

[7] = tested on: LuxSit-i (de novo designed luciferase; LuxSit variant R60S/A96L/M110V, 60S/96L/98H/110V; SEQ ID NO:2); experiment: Michaelis-Menten kinetics of LuxSit-i with DTZ; details: substrate DTZ; for Km / Vmax: Tris pH 8.0
Excerpt: as §1, §2, §3

[8] = tested on: LuxSit (de novo designed luciferase, SEQ ID NO:1) variant A96I; experiment: Michaelis-Menten kinetics of LuxSit A96I with DTZ; details: substrate DTZ; mean (95% CI), n = 3; Tris pH 8.0
Excerpt: as §4

[9] = tested on: LuxSit (de novo designed luciferase, SEQ ID NO:1) variant A96M; experiment: Michaelis-Menten kinetics of LuxSit A96M with DTZ; details: substrate DTZ; mean (95% CI), n = 3; Tris pH 8.0
Excerpt: as §4

O=c1c(Cc2ccccc2)nc2c(-c3ccccc3)[nH]c(-c3ccccc3)cn1-2 [DTZ, Diphenylterazine]
apparent Michaelis constant KM ([1]; in words (FIG. 3a)): low μM range | Km ([1]; 100 nM enzyme, Table 3): 8.9 µM | Vmax ([1]; 100 nM enzyme, Table 3): 0.20 photon s^−1 molecule^−1 | kcat ([1]; kcat=Vmax/LQY, Table 3): 1.8 s⁻¹ | Km ([1]; mean (95% CI), n = 3, Table 4): 8.9 µM | Vmax ([1]; mean (95% CI), n = 3, Table 4): 19.7(17.9-21.9) ×10^−2 photon s^−1 molecule^−1 | Km [2]: 18.3 µM | Vmax [2]: 0.32(0.29-0.37) ×10^−2 photon s^−1 molecule^−1 | Km [3]: 67.5 µM | Vmax [3]: 0.4(0.3-0.6) ×10^−2 photon s^−1 molecule^−1 | Km [4]: 29.3 µM | Vmax [4]: 0.17(0.15-0.2) ×10^−2 photon s^−1 molecule^−1 | Km [5]: 45.2 µM | Vmax [5]: 0.57(0.44-0.8) ×10^−2 photon s^−1 molecule^−1 | Km [6]: 12.6 µM | Vmax [6]: 0.19(0.17-0.21) ×10^−2 photon s^−1 molecule^−1 | apparent Michaelis constant KM ([7]; in words (FIG. 3a)): low μM range | Km ([7]; 100 nM enzyme, Table 3): 2.5 µM | Vmax ([7]; 100 nM enzyme, Table 3): 0.36 photon s^−1 molecule^−1 | kcat ([7]; kcat=Vmax/LQY, Table 3): 2.5 s⁻¹ | Km ([7]; mean (95% CI), n = 3, Table 4): 2.5 µM | Vmax ([7]; mean (95% CI), n = 3, Table 4): 36.1(33.7-38.6) ×10^−2 photon s^−1 molecule^−1 | Km [8]: 17.5 µM | Vmax [8]: 1.3(1.1-1.5) ×10^−2 photon s^−1 molecule^−1 | Km [9]: 4.8 µM | Vmax [9]: 6.0(5.3-6.9) ×10^−2 photon s^−1 molecule^−1
